Key:
F508delCFTR [1] = target: T1, F508delCFTR (Homo sapiens, UniProt P13569, DEL508-508); test: Cell Surface Expression-Horse Radish Peroxidase (CSE-HRP) assay, test compound without co-corrector; type: cell-based; settings: for Emax: maximum at any tested concentration, normalized to positive control, without co-corrector; for EC50: test compound without co-corrector;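 for Emax: percent of on-plate 2 µM positive control corrector response over DMSO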
T1 construct: expressed in transfected cells; host or cells: CFBE41o- human lung-derived epithelial cells (CFBE41o-F508delCFTR-HRP), doxycycline-inducible
How it was run: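 Compound without co-corrector was tested at eight 3-fold concentrations, top 20 μM, for 18-24 h at 33° C on doxycycline-induced (0.5 μg/mL, 72 h) CFBE41o- F508delCFTR-HRP cells. After DPBS washes, luminol luminescence gave % activity relative to on-plate positive control minus DMSO; EC50 came from triplicate-plate sigmoidal fitting.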

F508delCFTR [2] = target: T1, F508delCFTR; test: Cell Surface Expression-Horse Radish Peroxidase (CSE-HRP) assay, test compound with co-corrector; type: cell-based; settings: with 2 μM co-corrector; for Maximum % activity (with co-corrector): maximum at any tested concentration, normalized to positive control;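 for Maximum % activity (with co-corrector): percent of 2 µM positive control corrector over DMSO; co-corrector is that same compound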
How it was run: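 Surface-expression read-out: luminol luminescence from an HRP tag in the fourth exofacial loop of F508delCFTR, in doxycycline-induced (0.5 μg/mL, 72 h) CFBE41o- cells. Compound plus 2 μM co-corrector added for 18-24 h at 33° C., 8-point 3-fold series up to 20 μM. EC50 from a sigmoidal fit with variable Hill slope, normalised to positive control, triplicate plates.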

T1 sequence (P13569 with tags, fused parts or gaps DEL508-508): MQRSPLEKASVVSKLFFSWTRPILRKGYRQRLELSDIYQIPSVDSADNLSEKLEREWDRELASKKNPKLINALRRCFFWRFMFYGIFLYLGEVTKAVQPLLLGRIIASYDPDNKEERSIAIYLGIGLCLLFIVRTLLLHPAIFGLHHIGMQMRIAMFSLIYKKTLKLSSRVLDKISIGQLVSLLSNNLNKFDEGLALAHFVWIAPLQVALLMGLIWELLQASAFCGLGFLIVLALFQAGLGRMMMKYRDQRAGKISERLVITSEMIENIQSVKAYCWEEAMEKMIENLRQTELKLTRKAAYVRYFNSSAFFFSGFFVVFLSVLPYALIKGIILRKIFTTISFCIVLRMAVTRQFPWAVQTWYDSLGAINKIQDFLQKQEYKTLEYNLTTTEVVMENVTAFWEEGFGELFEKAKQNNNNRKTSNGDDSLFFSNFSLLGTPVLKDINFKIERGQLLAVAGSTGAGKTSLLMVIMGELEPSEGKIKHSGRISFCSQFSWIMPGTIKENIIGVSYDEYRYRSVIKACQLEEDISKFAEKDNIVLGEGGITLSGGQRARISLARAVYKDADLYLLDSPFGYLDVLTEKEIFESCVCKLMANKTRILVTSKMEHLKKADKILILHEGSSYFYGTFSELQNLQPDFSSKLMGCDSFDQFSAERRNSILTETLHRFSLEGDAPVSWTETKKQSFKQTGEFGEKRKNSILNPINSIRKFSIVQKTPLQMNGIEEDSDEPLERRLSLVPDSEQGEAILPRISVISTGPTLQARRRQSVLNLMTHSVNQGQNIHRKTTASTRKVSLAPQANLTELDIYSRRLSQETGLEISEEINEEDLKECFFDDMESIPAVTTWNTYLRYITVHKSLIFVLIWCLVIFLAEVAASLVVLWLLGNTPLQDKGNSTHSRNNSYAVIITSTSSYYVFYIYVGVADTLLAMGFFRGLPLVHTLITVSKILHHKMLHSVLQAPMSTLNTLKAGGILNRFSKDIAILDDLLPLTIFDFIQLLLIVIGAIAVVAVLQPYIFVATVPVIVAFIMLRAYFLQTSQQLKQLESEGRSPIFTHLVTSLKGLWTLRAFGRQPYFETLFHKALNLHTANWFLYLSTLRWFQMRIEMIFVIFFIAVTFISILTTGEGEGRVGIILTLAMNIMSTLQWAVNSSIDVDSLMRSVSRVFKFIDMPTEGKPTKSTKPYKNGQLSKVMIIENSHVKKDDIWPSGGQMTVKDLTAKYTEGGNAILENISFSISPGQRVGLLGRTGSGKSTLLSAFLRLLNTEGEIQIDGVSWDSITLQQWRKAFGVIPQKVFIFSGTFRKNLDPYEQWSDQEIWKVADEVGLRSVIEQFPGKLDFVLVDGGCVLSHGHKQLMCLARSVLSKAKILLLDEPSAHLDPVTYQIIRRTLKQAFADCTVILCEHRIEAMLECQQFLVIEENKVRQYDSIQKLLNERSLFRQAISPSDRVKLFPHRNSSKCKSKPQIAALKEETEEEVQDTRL

Row | SMILES | Emax (F508delCFTR [1]) [%] | EC50 (F508delCFTR [1]) [µM] | Maximum % activity (with co-corrector) (F508delCFTR [2]) | EC50 (F508delCFTR [2]) [µM]
1 | CCC1(C(=O)NS(=O)(=O)c2ccccc2OC(F)F)CCc2c(Cl)cccc21 (stereo not shown) [II-61] | < 50 | ≥ 10 | + (<150) | ≥ 10
2 | CCC1(C(=O)NS(=O)(=O)c2cc(C)ccc2C)CCc2c(Cl)cccc21 (stereo not shown) [II-62] | < 50 | ≥ 10 | + (<150) | ≥ 10
3 | CCC1(C(=O)NS(=O)(=O)c2ccccc2OCCOC)CCc2c(Cl)cccc21 (stereo not shown) [II-63] | < 50 | < 3 | ++ (≥150 and <350) | < 3
4 | CCC1(C(=O)NS(=O)(=O)c2ccccc2-c2ccccc2)CCc2c(Cl)cccc21 (stereo not shown) [II-64] | < 50 | < 3 | ++ (≥150 and <350) | < 3
5 | CCC1(C(=O)NS(=O)(=O)c2ccc3ccccc3c2)CCc2c(Cl)cccc21 (stereo not shown) [II-65] | < 50 | 3 to 10 | ++ (≥150 and <350) | 3 to 10
6 | CCC1(C(=O)NS(=O)(=O)c2ccccc2)CCc2c(Cl)cccc21 (stereo not shown) [II-66] | 50 to 150 | < 3 | ++ (≥150 and <350) | < 3
7 | CCC1(C(=O)NS(=O)(=O)c2cccc3nsnc23)CCc2c(Cl)cccc21 (stereo not shown) [II-67] | < 50 | ≥ 10 | + (<150) | ≥ 10
8 | O=C(NS(=O)(=O)c1cccc2ccccc12)C1CCc2ccccc21 (stereo not shown) [II-68] | < 50 | 3 to 10 | ++ (≥150 and <350) | < 3
9 | O=C(NS(=O)(=O)c1cccc2ccccc12)C1(CC2CCOC2)CCc2c(Cl)cccc21 (stereo not shown) [II-69] | 50 to 150 | < 3 | +++ (≥350) | < 3
10 | O=C(NS(=O)(=O)c1cccc2ccccc12)C1(CCn2cccn2)CCc2c(Cl)cccc21 (stereo not shown) [II-70] | 50 to 150 | < 3 | ++ (≥150 and <350) | < 3
11 | COc1cc(CC2(C(=O)NS(=O)(=O)c3cccc4ccccc34)CCc3c(Cl)cccc32)ccn1 (stereo not shown) [II-72] | 50 to 150 | < 3 | ++ (≥150 and <350) | < 3
12 | CCC1(C(=O)NS(=O)(=O)c2cccc3c2OCCO3)CCc2c(Cl)cccc21 (stereo not shown) [II-74] | < 50 | ≥ 10 | + (<150) | ≥ 10
13 | O=C(NS(=O)(=O)c1cccc2ccccc12)C1CCc2c(Br)cccc21 (stereo not shown) [II-75] | ≥ 150 | 3 to 10 | +++ (≥350) | < 3
14 | CCC1(C(=O)NS(=O)(=O)c2ccc(Br)c3ccccc23)CCc2c(Cl)cccc21 (stereo not shown) [II-76] | < 50 | < 3 | ++ (≥150 and <350) | < 3
15 | CCC1(C(=O)NS(=O)(=O)c2ccc(F)c3ccccc23)CCc2c(Cl)cccc21 (stereo not shown) [II-77] | < 50 | < 3 | ++ (≥150 and <350) | < 3
16 | CCC1(C(=O)NS(=O)(=O)c2cccc3c(Br)cccc23)CCc2c(Cl)cccc21 (stereo not shown) [II-78] | 50 to 150 | < 3 | +++ (≥350) | < 3
17 | CCC1(C(=O)NS(=O)(=O)c2cccc3c2CCCC3)CCc2c(Cl)cccc21 (stereo not shown) [II-79] | 50 to 150 | < 3 | ++ (≥150 and <350) | < 3

Row | SMILES | Emax (F508delCFTR [1]) [%] | EC50 (F508delCFTR [1]) [µM] | Maximum % activity (with co-corrector) (F508delCFTR [2]) | EC50 (F508delCFTR [2]) [µM]
18 | CCC1(C(=O)NS(=O)(=O)c2ccc(C3CCC3)c3ccccc23)CCc2c(C3CCC3)cccc21 (stereo not shown) [II-82] | < 50 | ≥ 10 | ++ (≥150 and <350) | 3 to 10
19 | CCC1(C(=O)NS(=O)(=O)c2cccc3c(C4CCC4)cccc23)CCc2c(C3CCC3)cccc21 (stereo not shown) [II-83] | 50 to 150 | 3 to 10 | ++ (≥150 and <350) | 3 to 10
20 | O=C(NS(=O)(=O)c1cccc2ccccc12)C1CCCc2c(OCC3CCCCC3)ccc(Br)c21 (stereo not shown) [II-84] | 50 to 150 | 3 to 10 | ++ (≥150 and <350) | 3 to 10
21 | COc1cccc(COc2ccc(Br)c3c2CCCC3C(=O)NS(=O)(=O)c2cccc3ccccc23)c1 (stereo not shown) [II-85] | < 50 | 3 to 10 | ++ (≥150 and <350) | 3 to 10
22 | COc1cccc(COc2ccc(Br)c3c2CCCC3C(=O)N(Cc2cccc(OC)c2)S(=O)(=O)c2cccc3ccccc23)c1 (stereo not shown) [II-86] | < 50 | ≥ 10 | ++ (≥150 and <350) | 3 to 10
23 | CCOC(=O)COc1ccc(Br)c2c1CCCC2C(=O)NS(=O)(=O)c1cccc2ccccc12 (stereo not shown) [II-87] | < 50 | < 3 | ++ (≥150 and <350) | < 3
24 | O=C(NS(=O)(=O)c1cccc2ccccc12)C1CCCc2c(OC3CCCC3)ccc(Br)c21 (stereo not shown) [II-88] | 50 to 150 | 3 to 10 | +++ (≥350) | < 3
25 | O=C(NS(=O)(=O)c1cccc2ccccc12)C1CCCc2c(OCc3ccccc3)ccc(Br)c21 (stereo not shown) [II-89] | 50 to 150 | 3 to 10 | ++ (≥150 and <350) | 3 to 10
26 | O=C(C1CCCc2c(OCc3ccccc3)ccc(Br)c21)N(Cc1ccccc1)S(=O)(=O)c1cccc2ccccc12 (stereo not shown) [II-90] | < 50 | ≥ 10 | + (<150) | ≥ 10
27 | O=C(NS(=O)(=O)c1cccc2ccccc12)C1CCCc2c(OC3COC3)ccc(Br)c21 (stereo not shown) [II-91] | 50 to 150 | 3 to 10 | +++ (≥350) | < 3
28 | O=C(NS(=O)(=O)c1cccc2ccccc12)C1CCCc2c(OC3CCOCC3)ccc(Br)c21 (stereo not shown) [II-92] | < 50 | 3 to 10 | ++ (≥150 and <350) | < 3
29 | CC(C)(O)COc1ccc(Br)c2c1CCCC2C(=O)NS(=O)(=O)c1cccc2ccccc12 (stereo not shown) [II-93] | < 50 | ≥ 10 | + (<150) | < 3
30 | COc1cc2c(c(OC)c1)C(C(=O)NS(=O)(=O)c1cccc3ccccc13)CCC2 (stereo not shown) [II-94] | ≥ 150 | 3 to 10 | +++ (≥350) | < 3
31 | COc1ccc(/C=C/c2ccccc2)c2c1CCCC2C(=O)NS(=O)(=O)c1cccc2ccccc12 (stereo not shown) [II-96] | ≥ 150 | < 3 | +++ (≥350) | < 3
32 | COc1ccc(-c2cccc3c2OC(F)(F)O3)c2c1CCCC2C(=O)NS(=O)(=O)c1cccc2ccccc12 (stereo not shown) [II-97] | ≥ 150 | < 3 | +++ (≥350) | < 3
33 | COc1ccc(-c2ccc(C)cc2F)c2c1CCCC2C(=O)NS(=O)(=O)c1cccc2ccccc12 (stereo not shown) [II-98] | ≥ 150 | < 3 | +++ (≥350) | < 3
34 | COc1ccc(-c2ccccc2Oc2ccccc2)c2c1CCCC2C(=O)NS(=O)(=O)c1cccc2ccccc12 (stereo not shown) [II-99] | ≥ 150 | < 3 | +++ (≥350) | < 3

From US20180244611A1, “Modulators of the Cystic Fibrosis Transmembrane Conductance Regulator Protein and Methods of Use” (AbbVie S.à.r.l., priority 2017, published 2018)
